Measured values taken from PubChem BioAssay AID2060602 (Molecular Pharmacology Branch, DTP, NCI, 2025).
“And” between values parts separate entries of the source, which are not always exact repeats. Equal entries are not always repeated.

Tested on: 648629-189-R-J1-PDC complex spheroids viability
Experiment: Anticancer human tumor 648629-189-R-J1-PDC patient-derived bladder carcinoma cell line growth inhibition [CLK]
Details: for viability, T/C: stronger effect = lower value
Outline: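 Multi-cell-type spheroids combined patient-derived tumor cells with HUVEC endothelial cells and human mesenchymal stem cells. Paired agents were dosed in half-log steps down from about clinical Cmax, or from 10 microM where Cmax was unknown.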

[1] = curve of first compound, second compound 0.0316 µM
[2] = curve of first compound, second compound 0.1 µM
[3] = curve of first compound, second compound 0.316 µM
[4] = curve of first compound, second compound 1 µM
[5] = curve of first compound, second compound 3.16 µM
[6] = curve of first compound, second compound 10 µM
[7] = second compound 0.0316 µM, first compound 0.0316 µM
[8] = second compound 0.0316 µM, first compound 0.1 µM
[9] = second compound 0.0316 µM, first compound 0.316 µM
[10] = second compound 0.0316 µM, first compound 1 µM
[11] = second compound 0.0316 µM, first compound 3.16 µM
[12] = second compound 0.0316 µM, first compound 10 µM
[13] = second compound 0.1 µM, first compound 0.0316 µM
[14] = second compound 0.1 µM, first compound 0.1 µM
[15] = second compound 0.1 µM, first compound 0.316 µM
[16] = second compound 0.1 µM, first compound 1 µM
[17] = second compound 0.1 µM, first compound 3.16 µM
[18] = second compound 0.1 µM, first compound 10 µM
[19] = second compound 0.316 µM, first compound 0.0316 µM
[20] = second compound 0.316 µM, first compound 0.1 µM
[21] = second compound 0.316 µM, first compound 0.316 µM
[22] = second compound 0.316 µM, first compound 1 µM
[23] = second compound 0.316 µM, first compound 3.16 µM
[24] = second compound 0.316 µM, first compound 10 µM
[25] = second compound 1 µM, first compound 0.0316 µM
[26] = second compound 1 µM, first compound 0.1 µM
[27] = second compound 1 µM, first compound 0.316 µM
[28] = second compound 1 µM, first compound 1 µM
[29] = second compound 1 µM, first compound 3.16 µM
[30] = second compound 1 µM, first compound 10 µM
[31] = second compound 3.16 µM, first compound 0.0316 µM
[32] = second compound 3.16 µM, first compound 0.1 µM
[33] = second compound 3.16 µM, first compound 0.316 µM
[34] = second compound 3.16 µM, first compound 1 µM
[35] = second compound 3.16 µM, first compound 3.16 µM
[36] = second compound 3.16 µM, first compound 10 µM
[37] = second compound 10 µM, first compound 0.0316 µM
[38] = second compound 10 µM, first compound 0.1 µM
[39] = second compound 10 µM, first compound 0.316 µM
[40] = second compound 10 µM, first compound 1 µM
[41] = second compound 10 µM, first compound 3.16 µM
[42] = second compound 10 µM, first compound 10 µM
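Wherever viability, T/C is given: drug exposure lasted seven days before viability readout; 100% = DMSO vehicle control wells.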

SMILES: COC1C=CCC(C)C(C)S(=O)(=O)NC(=O)c2ccc3c(c2)N(CC2CCC21)CC1(CCCc2cc(Cl)ccc21)CO3 (stereo not given) + CN1CCN(c2cc(C(=O)Nc3cc4cc(-c5cnn(C)c5)ccc4cn3)ccn2)CC1
- IC50 [1]: 2.09 µM
- IC50 [2]: 2.1 µM
- IC50 [3]: < 0.0316 µM
- IC50 [4]: < 0.0316 µM
- IC50 [5]: < 0.0316 µM
- IC50 [6]: < 0.0316 µM
- viability, T/C [7]: 106%
- viability, T/C [8]: 99.9%
- viability, T/C [9]: 93.2%
- viability, T/C [10]: 82%
- viability, T/C [11]: 32.4%
- viability, T/C [12]: 3.21%
- viability, T/C [13]: 114%
- viability, T/C [14]: 94.4%
- viability, T/C [15]: 92.4%
- viability, T/C [16]: 80.1%
- viability, T/C [17]: 33.3%
- viability, T/C [18]: 3.02%
- viability, T/C [19]: 50.2%
- viability, T/C [20]: 46.9%
- viability, T/C [21]: 37.9%
- viability, T/C [22]: 14.4%
- viability, T/C [23]: 4.72%
- viability, T/C [24]: 1.78%
- viability, T/C [25]: 0.38%
- viability, T/C [26]: 0.34%
- viability, T/C [27]: 0.42%
- viability, T/C [28]: 0.15%
- viability, T/C [29]: 0.13%
- viability, T/C [30]: 0.08%
- viability, T/C [31]: 0.13%
- viability, T/C [32]: 0.12%
- viability, T/C [33]: 0.16%
- viability, T/C [34]: 0.14%
- viability, T/C [35]: 0.43%
- viability, T/C [36]: 0.12%
- viability, T/C [37]: 0.17%
- viability, T/C [38]: 0.13%
- viability, T/C [39]: 0.2%
- viability, T/C [40]: 0.21%
- viability, T/C [41]: 0.24%
- viability, T/C [42]: 0.51%

SMILES: CC(Nc1ccc2c(c1)OCCn1cc(N3C(=O)OCC3C(F)F)nc1-2)C(N)=O (stereo not given) + CN1CCN(c2cc(C(=O)Nc3cc4cc(-c5cnn(C)c5)ccc4cn3)ccn2)CC1
- IC50 [1]: 8.56 µM
- IC50 [2]: 8.74 µM
- IC50 [3]: < 0.0316 µM
- IC50 [4]: < 0.0316 µM
- IC50 [5]: < 0.0316 µM
- IC50 [6]: < 0.0316 µM
- viability, T/C [7]: 114%
- viability, T/C [8]: 111%
- viability, T/C [9]: 97.6%
- viability, T/C [10]: 84.2%
- viability, T/C [11]: 77.2%
- viability, T/C [12]: 44.8%
- viability, T/C [13]: 105%
- viability, T/C [14]: 100%
- viability, T/C [15]: 90.2%
- viability, T/C [16]: 82.8%
- viability, T/C [17]: 68.8%
- viability, T/C [18]: 46.8%
- viability, T/C [19]: 44.5%
- viability, T/C [20]: 44.2%
- viability, T/C [21]: 42.5%
- viability, T/C [22]: 38.4%
- viability, T/C [23]: 30.9%
- viability, T/C [24]: 28.1%
- viability, T/C [25]: 0.75%
- viability, T/C [26]: 0.85%
- viability, T/C [27]: 0.93%
- viability, T/C [28]: 1.18%
- viability, T/C [29]: 0.5%
- viability, T/C [30]: 0.59%
- viability, T/C [31]: 0.08%
- viability, T/C [32]: 0.14%
- viability, T/C [33]: 0.16%
- viability, T/C [34]: 0.13%
- viability, T/C [35]: 1.1%
- viability, T/C [36]: 0.14%
- viability, T/C [37]: 0.1%
- viability, T/C [38]: 0.13%
- viability, T/C [39]: 0.17%
- viability, T/C [40]: 0.22%
- viability, T/C [41]: 0.22%
- viability, T/C [42]: 0.2%

SMILES: Nc1ccccc1NC(=O)c1ccc(CNC(=O)OCc2cccnc2)cc1
- viability, T/C (compound 0.0316 µM): 115% and 88%
- viability, T/C (compound 0.1 µM): 92.5% and 91.6%
- viability, T/C (compound 0.316 µM): 88.5% and 77.7%
- viability, T/C (compound 1 µM): 72.7% and 64%
- viability, T/C (compound 3.16 µM): 33% and 24.8%
- viability, T/C (compound 10 µM): 4.51% and 3.32%
- IC50 (curve of compound): 1.95 µM and 1.46 µM

SMILES: CC(CO)NC(=O)c1cc(-c2ccc(Cl)cc2)nn(-c2cnn(C)c2)c1=O (stereo not given) + CNC(=O)c1ccc(Nc2nc(OC3CCCC3)c3c(-c4ccc5nc(C)oc5c4)c[nH]c3n2)c(OC)c1
- IC50 [1]: > 10 µM
- IC50 [2]: > 10 µM
- IC50 [3]: < 0.0316 µM
- IC50 [4]: < 0.0316 µM
- IC50 [5]: < 0.0316 µM
- IC50 [6]: < 0.0316 µM
- viability, T/C [7]: 99.5%
- viability, T/C [8]: 92.6%
- viability, T/C [9]: 117%
- viability, T/C [10]: 104%
- viability, T/C [11]: 88.9%
- viability, T/C [12]: 88.5%
- viability, T/C [13]: 90.9%
- viability, T/C [14]: 87.7%
- viability, T/C [15]: 90.3%
- viability, T/C [16]: 76.9%
- viability, T/C [17]: 90.9%
- viability, T/C [18]: 82.8%
- viability, T/C [19]: 31.1%
- viability, T/C [20]: 28.2%
- viability, T/C [21]: 29.3%
- viability, T/C [22]: 30.2%
- viability, T/C [23]: 26.8%
- viability, T/C [24]: 21.7%
- viability, T/C [25]: 16.6%
- viability, T/C [26]: 19.7%
- viability, T/C [27]: 18.5%
- viability, T/C [28]: 18.8%
- viability, T/C [29]: 22.5%
- viability, T/C [30]: 18.8%
- viability, T/C [31]: 18%
- viability, T/C [32]: 21.2%
- viability, T/C [33]: 16.1%
- viability, T/C [34]: 23%
- viability, T/C [35]: 20.8%
- viability, T/C [36]: 17.9%
- viability, T/C [37]: 18.7%
- viability, T/C [38]: 20.2%
- viability, T/C [39]: 19.5%
- viability, T/C [40]: 21.6%
- viability, T/C [41]: 19.2%
- viability, T/C [42]: 19.3%

SMILES: COc1ccc([C@@H](O)c2cc(-c3ncnc4cc(N5CCOCC5)ccc34)c(F)cc2Cl)nn1 + CN1CCN(c2cc(C(=O)Nc3cc4cc(-c5cnn(C)c5)ccc4cn3)ccn2)CC1
- IC50 [1]: 7.78 µM
- IC50 [2]: 8.17 µM
- IC50 [3]: < 0.0316 µM
- IC50 [4]: < 0.0316 µM
- IC50 [5]: < 0.0316 µM
- IC50 [6]: < 0.0316 µM
- viability, T/C [7]: 122%
- viability, T/C [8]: 107%
- viability, T/C [9]: 101%
- viability, T/C [10]: 95.2%
- viability, T/C [11]: 80%
- viability, T/C [12]: 41.2%
- viability, T/C [13]: 98%
- viability, T/C [14]: 89%
- viability, T/C [15]: 102%
- viability, T/C [16]: 88.9%
- viability, T/C [17]: 80.3%
- viability, T/C [18]: 43.4%
- viability, T/C [19]: 23%
- viability, T/C [20]: 26%
- viability, T/C [21]: 32.9%
- viability, T/C [22]: 29.2%
- viability, T/C [23]: 26.8%
- viability, T/C [24]: 19.9%
- viability, T/C [25]: 0.13%
- viability, T/C [26]: 0.23%
- viability, T/C [27]: 0.79%
- viability, T/C [28]: 0.13%
- viability, T/C [29]: 0.57%
- viability, T/C [30]: 0.16%
- viability, T/C [31]: 0.06%
- viability, T/C [32]: 0.6%
- viability, T/C [33]: 0.1%
- viability, T/C [34]: 0.08%
- viability, T/C [35]: 0.27%
- viability, T/C [36]: 1.67%
- viability, T/C [37]: 0.07%
- viability, T/C [38]: 0.13%
- viability, T/C [39]: 0.14%
- viability, T/C [40]: 0.13%
- viability, T/C [41]: 0.92%
- viability, T/C [42]: 0.65%
